Data on 38 compounds can be found in patent US20070027150A1 (priority 2005, published 2007).

Each structure is given as a SMILES string.

The first assay deals with His-tagged N-terminal ATP binding domain (amino acid residues 9-236) of HSP90α (Homo sapiens, UniProt P07900). The assay is described as follows: HSP90 inhibitor binding potency: TRF competition binding assay. To be noted: Table I; read-out: Hsp90 IC50 Range. In outline:
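His-tagged HSP90α N-domain (residues 9-236) incubated 2 h at room temperature with biotinylated radicicol and increasing compound in 50 mM HEPES, 6 mM MgCl2, 20 mM KCl, 0.1% BSA. Bound tracer captured on streptavidin plates, detected with europium anti-His antibody by time-resolved fluorescence; IC50 derived.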
Broadly, the IC50 is the concentration at which inhibition is half-maximal. Turning to `Cc1nc(N)nc2c1C(=O)CC(c1ccccc1N1CCCC1=O)C2` (centres unmarked) [Compound 163, 2-amino-4-methyl-7-[2-(2-oxo-pyrrolidin-1-yl)-phenyl]-7,8-dihydro-6H-quinazolin-5-one], the IC50 is 1000 to 10000 nM. Turning to `Cc1nc(N)nc2c1C(=O)CC(c1ccccc1Nc1ccccc1)C2` (centres unmarked) [Compound 164, 2-amino-4-methyl-7-(2-phenylamino-phenyl)-7,8-dihydro-6H-quinazolin-5-one], the IC50 was below 1000 nM. Regarding `COC(=O)c1ccccc1C1CC(=O)c2c(C)nc(N)nc2C1` (centres unmarked) [Compound 165, methyl 2-(2-amino-4-methyl-5-oxo-5,6,7,8-tetrahydroquinazolin-7-yl)benzoate], the IC50 is below 1000 nM. As to `Cc1nc(N)nc2c1C(=O)CC(c1cccc(C(N)=O)c1)C2` (centres unmarked) [Compound 166, 3-(2-amino-4-methyl-5-oxo-5,6,7,8-tetrahydroquinazolin-7-yl)benzamide], the IC50 is above 10000 nM.

With `Cc1nc(N)nc2c1C(=O)CC(c1ccccc1Oc1cc[nH]c(=O)c1)C2` (centres unmarked) [Compound 167, 2-amino-4-methyl-7-[2-(2-oxo-1,2-dihydro-pyridin-4-yloxy)-phenyl]-7,8-dihydro-6H-quinazolin-5-one], the IC50 is 1000 to 10000 nM. Turning to `Cc1nc(N)nc2c1C(=O)CC(c1c(O)cccc1Cl)C2` (centres unmarked) [Compound 168, 2-Amino-7-(2-chloro-6-hydroxy-phenyl)-4-methyl-7,8-dihydro-6H-quinazolin-5-one], the IC50 was above 10000 nM. Same read-out and setting: with `Cc1nc(N)nc2c1C(=O)CC(c1ccccc1-c1ccc[nH]c1=O)C2` (centres unmarked) [Compound 169, 2-amino-4-methyl-7-[2-(2-oxo-1,2-dihydropyridin-3-yl)phenyl]-7,8-dihydroquinazolin-5(6H)-one] the figure was below 1000 nM; with `Cc1nc(N)nc2c1C(=O)CC(c1c(O)cccc1-c1cccnc1F)C2` (centres unmarked) [Compound 170, 2-amino-7-[2-(2-fluoro-pyridin-3-yl)-6-hydroxy-phenyl]-4-methyl-7,8-dihydro-6H-quinazolin-5-one], below 1000 nM. Still for that read-out and setting: with `Cc1nc(N)nc2c1C(=O)CC(c1ccccc1C1CCCCC1)C2` (centres unmarked) [Compound 171, 2-amino-7-(2-cyclohexylphenyl)-4-methyl-7,8-dihydroquinazolin-5(6H)-one] the figure was below 1000 nM; with `Cc1nc(N)nc2c1C(=O)CC(c1ccc(F)cc1C1CCCCC1)C2` (centres unmarked) [Compound 172, 2-amino-7-(2-cyclohexyl-4-fluorophenyl)-4-methyl-7,8-dihydroquinazolin-5(6H)-one], 1000 to 10000 nM. As for `COc1cccc(C2CCCCC2)c1C1CC(=O)c2c(C)nc(N)nc2C1` (centres unmarked) [Compound 173, 2-amino-7-(2-cyclohexyl-6-methoxyphenyl)-4-methyl-7,8-dihydroquinazolin-5(6H)-one], the IC50 is above 10000 nM. For `Cc1nc(N)nc2c1C(=O)CC(c1ccccc1-c1cccc(CN(C)C)c1)C2` (centres unmarked) [Compound 174, 2-amino-7-{3′-[(dimethylamino)methyl]-1,1′-biphenyl-2-yl}-4-methyl-7,8-dihydroquinazolin-5(6H)-one], the IC50 was in the range of 1000 to 10000 nM.

Still in this assay, the particulars now being: Table II; read-out: Hsp90 IC50 Range.
On to `Cc1nc(N)nc2c1C(=O)CC(c1ncccc1OC(C)C)C2` (centres unmarked) [Compound 175, 2-amino-7-(3-isopropoxy-pyridin-2-yl)-4-methyl-7,8-dihydro-6H-quinazolin-5-one], for which the IC50 was below 1000 nM. Regarding `Cc1nc(N)nc2c1C(=O)CC(c1ccc(F)cc1OC(C)C)C2` (centres unmarked) [Compound 176, 2-amino-7-(4-fluoro-2-isopropoxy-phenyl)-4-methyl-7,8-dihydro-6H-quinazolin-5-one], the IC50 is below 1000 nM. As to `Cc1nc(N)nc2c1C(=O)CC(c1ncccc1OC1CCCC1)C2` (centres unmarked) [Compound 177, 2-amino-7-(3-cyclopentyloxy-pyridin-2-yl)-4-methyl-7,8-dihydro-6H-quinazolin-5-one], the IC50 is below 1000 nM. On the same count and under the same terms, with `Cc1nc(N)nc2c1C(=O)CC(c1ncccc1OC1CCCC1)C2` (centres unmarked) [Compound 178, 2-amino-7-(3-cyclopentyloxy-pyridin-2-yl)-4-methyl-7,8-dihydro-6H-quinazolin-5-one] the figure was below 1000 nM; with `Cc1nc(N)nc2c1C(=O)CC(c1ccc(F)cc1OCC1CC1)C2` (centres unmarked) [Compound 179, 2-amino-7-(2-cyclopropylmethoxy-4-fluoro-phenyl)-4-methyl-7,8-dihydro-6H-quinazolin-5-one], below 1000 nM; with `Cc1nc(N)nc2c1C(=O)CC(c1ccccc1SC(C)(C)C)C2` (centres unmarked) [Compound 180, 2-amino-7-(2-tert-butylsulfanyl-phenyl)-4-methyl-7,8-dihydro-6H-quinazolin-5-one], below 1000 nM. As to `Cc1nc(N)nc2c1C(=O)CC(c1ccc(F)cc1OC1CCCC1)C2` (centres unmarked) [Compound 181, 2-amino-7-(2-cyclopentyloxy-4-fluoro-phenyl)-4-methyl-7,8-dihydro-6H-quinazolin-5-one], the IC50 was below 1000 nM.

As for `Cc1nc(N)nc2c1C(=O)CC(c1ccccc1S(=O)(=O)C(C)(C)C)C2` (centres unmarked) [Compound 182, 2-amino-4-methyl-7-[2-(2-methyl-propane-2-sulfonyl)-phenyl]-7,8-dihydro-6H-quinazolin-5-one], the IC50 was below 1000 nM. For `CCc1cccc(-c2cc(F)ccc2C2CC(=O)c3c(C)nc(N)nc3C2)n1` (centres unmarked) [Compound 183, 2-amino-7-[2-(6-ethyl-pyridin-2-yl)-4-fluoro-phenyl]-4-methyl-7,8-dihydro-6H-quinazolin-5-one], the IC50 is below 1000 nM. With `Cc1nc(N)nc2c1C(=O)CC(c1ccccc1S(=O)(=O)N1CCCC1)C2` (centres unmarked) [Compound 184, 2-amino-4-methyl-7-[2-(pyrrolidine-1-sulfonyl)-phenyl]-7,8-dihydro-6H-quinazolin-5-one], the IC50 was 1000 to 10000 nM. Regarding `Cc1nc(N)nc2c1C(=O)CC(c1ccccc1S(=O)(=O)N(C)C(C)C)C2` (centres unmarked) [Compound 185, 2-(2-amino-4-methyl-5-oxo-5,6,7,8-tetrahydro-quinazolin-7-yl)-N-isopropyl-N-methyl-benzenesulfonamide], the IC50 is 1000 to 10000 nM. `COc1ccc(F)c(-c2cc(F)ccc2C2CC(=O)c3c(C)nc(N)nc3C2)c1` (centres unmarked) [Compound 186, 2-amino-7-(5,2′-difluoro-5′-methoxy-biphenyl-2-yl)-4-methyl-7,8-dihydro-6H-quinazolin-5-one]: the IC50 is below 1000 nM. Same read-out and setting: the result for `Cc1nc(N)nc2c1C(=O)CC(c1cnccc1-c1cccc(Br)c1)C2` (centres unmarked) [Compound 187, 2-amino-7-[4-(3-bromo-phenyl)-pyridin-3-yl]-4-methyl-7,8-dihydro-6H-quinazolin-5-one] reads below 1000 nM; that for `Cc1nc(N)nc2c1C(=O)CC(c1nccn1-c1ccccc1F)C2` (centres unmarked) [Compound 188, 2-amino-7-[1-(2-fluoro-phenyl)-1H-imidazol-2-yl]-4-methyl-7,8-dihydro-6H-quinazolin-5-one], below 1000 nM; that for `Cc1nc(N)nc2c1C(=O)CC(c1nccn1C1CCCC1)C2` (centres unmarked) [Compound 189, 2-amino-7-(1-cyclopentyl-1H-imidazol-2-yl)-4-methyl-7,8-dihydro-6H-quinazolin-5-one], below 1000 nM. For `COc1cccc(-n2ccnc2C2CC(=O)c3c(C)nc(N)nc3C2)c1` (centres unmarked) [Compound 190, 2-amino-7-[1-(3-methoxy-phenyl)-1H-imidazol-2-yl]-4-methyl-7,8-dihydro-6H-quinazolin-5-one], the IC50 was 1000 to 10000 nM. Consider `CCOc1cccc(-n2ccnc2C2CC(=O)c3c(C)nc(N)nc3C2)c1` (centres unmarked) [Compound 191, 2-amino-7-[1-(3-ethoxy-phenyl)-1H-imidazol-2-yl]-4-methyl-7,8-dihydro-6H-quinazolin-5-one], for which the IC50 was above 10000 nM. For `C#CCCOc1cc(F)ccc1C1CC(=O)c2c(C)nc(N)nc2C1` (centres unmarked) [Compound 192, 2-amino-7-(2-but-3-ynyloxy-4-fluoro-phenyl)-4-methyl-7,8-dihydro-6H-quinazolin-5-one], the IC50 was below 1000 nM. In the case of `COc1cccc(-n2ccnc2C2CC(=O)c3c(C)nc(N)nc3C2)n1` (centres unmarked) [Compound 193, 2-amino-7-[1-(6-methoxy-pyridin-2-yl)-1H-imidazol-2-yl]-4-methyl-7,8-dihydro-6H-quinazolin-5-one], the IC50 was below 1000 nM. In the case of `COc1ccccc1-n1ccnc1C1CC(=O)c2c(C)nc(N)nc2C1` (centres unmarked) [Compound 194, 2-amino-7-[1-(2-methoxy-phenyl)-1H-imidazol-2-yl]-4-methyl-7,8-dihydro-6H-quinazolin-5-one], the IC50 is below 1000 nM.

As for `CCc1ccccc1-n1ccnc1C1CC(=O)c2c(C)nc(N)nc2C1` (centres unmarked) [Compound 195, 2-amino-7-[1-(2-ethyl-phenyl)-1H-imidazol-2-yl]-4-methyl-7,8-dihydro-6H-quinazolin-5-one], the IC50 is below 1000 nM. Still for that read-out and setting: the result for `COc1ccc(F)c(-n2ccnc2C2CC(=O)c3c(C)nc(N)nc3C2)c1` (centres unmarked) [Compound 196, 2-amino-7-[1-(2-fluoro-5-methoxy-phenyl)-1H-imidazol-2-yl]-4-methyl-7,8-dihydro-6H-quinazolin-5-one] reads 1000 to 10000 nM; that for `C#Cc1cccc(-n2ccnc2C2CC(=O)c3c(C)nc(N)nc3C2)c1` (centres unmarked) [Compound 197, 2-amino-7-[1-(3-ethynyl-phenyl)-1H-imidazol-2-yl]-4-methyl-7,8-dihydro-6H-quinazolin-5-one], below 1000 nM.

For the compound `Cc1nc(N)nc2c1C(=O)CC(c1nccn1-c1cccc(OC(F)(F)F)c1)C2` (centres unmarked) [Compound 198, 2-amino-4-methyl-7-[1-(3-trifluoromethoxy-phenyl)-1H-imidazol-2-yl]-7,8-dihydro-6H-quinazolin-5-one], the IC50 was above 10000 nM. Consider `COc1ccc(C(F)(F)F)cc1-n1ccnc1C1CC(=O)c2c(C)nc(N)nc2C1` (centres unmarked) [Compound 199, 2-amino-7-[1-(2-methoxy-5-trifluoromethyl-phenyl)-1H-imidazol-2-yl]-4-methyl-7,8-dihydro-6H-quinazolin-5-one], for which the IC50 lay in the range of 1000 to 10000 nM.

As to `CCc1c[nH]nc1-n1ccnc1C1CC(=O)c2c(C)nc(N)nc2C1` (centres unmarked) [Compound 200, 2-amino-7-[1-(4-ethyl-1H-pyrazol-3-yl)-1H-imidazol-2-yl]-4-methyl-7,8-dihydro-6H-quinazolin-5-one], the IC50 is below 1000 nM.
